Assay results reported in patent publication US9249129B2, “Morpholino substituted urea derivatives as mTOR inhibitors” (CELLZOME LIMITED, priority 2010, dated 2016).

Assays:
Test in all cases: kinobeads assay with mass spectrometry detection of kinases (kinase selectivity profile)
Type in all cases: binding
kinases (kinome) [1] = molecular target: T1, kinases (kinome) (Homo sapiens, UniProt P50613); details: CDK7 (CMGC), IPI00000685
T1 construct: determined in kinobeads assays with mass spectrometry detection of kinases as described previously; endogenous in cells; host or cells: cell lysate
T1 sequence (P50613 whole entry): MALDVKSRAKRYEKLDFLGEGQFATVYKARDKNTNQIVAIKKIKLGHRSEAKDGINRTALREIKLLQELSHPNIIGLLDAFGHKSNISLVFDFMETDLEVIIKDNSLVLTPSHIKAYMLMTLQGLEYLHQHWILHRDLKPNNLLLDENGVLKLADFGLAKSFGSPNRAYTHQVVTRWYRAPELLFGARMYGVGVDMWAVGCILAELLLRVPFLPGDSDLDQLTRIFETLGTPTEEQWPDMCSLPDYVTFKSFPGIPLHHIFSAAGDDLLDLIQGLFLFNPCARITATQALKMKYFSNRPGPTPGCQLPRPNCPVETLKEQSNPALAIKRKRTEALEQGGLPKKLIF
Text: (§1) The protein kinase complement of the human genome (the kinome) was described previously (Manning et al., 2002. Science 298(5600):1912-1934). Sequence accession numbers are defined by the International Protein Index (IPI) (Kersey et al., 2004. Proteomics 4(7):1985-1988).

kinases (kinome) [2] = molecular target: T2, kinases (kinome) (Homo sapiens, UniProt P48729); details: CK1a (CK1), IPI00448798
T2 construct: determined in kinobeads assays with mass spectrometry detection of kinases as described previously; endogenous in cells; host or cells: cell lysate
Text: as §1

kinases (kinome) [3] = molecular target: T3, kinases (kinome) (Homo sapiens, UniProt P42356); details: PIK4Ca (Lipid Kinase), IPI00070943
T3 construct: determined in kinobeads assays with mass spectrometry detection of kinases as described previously; endogenous in cells; host or cells: cell lysate
T3 sequence (P42356 whole entry): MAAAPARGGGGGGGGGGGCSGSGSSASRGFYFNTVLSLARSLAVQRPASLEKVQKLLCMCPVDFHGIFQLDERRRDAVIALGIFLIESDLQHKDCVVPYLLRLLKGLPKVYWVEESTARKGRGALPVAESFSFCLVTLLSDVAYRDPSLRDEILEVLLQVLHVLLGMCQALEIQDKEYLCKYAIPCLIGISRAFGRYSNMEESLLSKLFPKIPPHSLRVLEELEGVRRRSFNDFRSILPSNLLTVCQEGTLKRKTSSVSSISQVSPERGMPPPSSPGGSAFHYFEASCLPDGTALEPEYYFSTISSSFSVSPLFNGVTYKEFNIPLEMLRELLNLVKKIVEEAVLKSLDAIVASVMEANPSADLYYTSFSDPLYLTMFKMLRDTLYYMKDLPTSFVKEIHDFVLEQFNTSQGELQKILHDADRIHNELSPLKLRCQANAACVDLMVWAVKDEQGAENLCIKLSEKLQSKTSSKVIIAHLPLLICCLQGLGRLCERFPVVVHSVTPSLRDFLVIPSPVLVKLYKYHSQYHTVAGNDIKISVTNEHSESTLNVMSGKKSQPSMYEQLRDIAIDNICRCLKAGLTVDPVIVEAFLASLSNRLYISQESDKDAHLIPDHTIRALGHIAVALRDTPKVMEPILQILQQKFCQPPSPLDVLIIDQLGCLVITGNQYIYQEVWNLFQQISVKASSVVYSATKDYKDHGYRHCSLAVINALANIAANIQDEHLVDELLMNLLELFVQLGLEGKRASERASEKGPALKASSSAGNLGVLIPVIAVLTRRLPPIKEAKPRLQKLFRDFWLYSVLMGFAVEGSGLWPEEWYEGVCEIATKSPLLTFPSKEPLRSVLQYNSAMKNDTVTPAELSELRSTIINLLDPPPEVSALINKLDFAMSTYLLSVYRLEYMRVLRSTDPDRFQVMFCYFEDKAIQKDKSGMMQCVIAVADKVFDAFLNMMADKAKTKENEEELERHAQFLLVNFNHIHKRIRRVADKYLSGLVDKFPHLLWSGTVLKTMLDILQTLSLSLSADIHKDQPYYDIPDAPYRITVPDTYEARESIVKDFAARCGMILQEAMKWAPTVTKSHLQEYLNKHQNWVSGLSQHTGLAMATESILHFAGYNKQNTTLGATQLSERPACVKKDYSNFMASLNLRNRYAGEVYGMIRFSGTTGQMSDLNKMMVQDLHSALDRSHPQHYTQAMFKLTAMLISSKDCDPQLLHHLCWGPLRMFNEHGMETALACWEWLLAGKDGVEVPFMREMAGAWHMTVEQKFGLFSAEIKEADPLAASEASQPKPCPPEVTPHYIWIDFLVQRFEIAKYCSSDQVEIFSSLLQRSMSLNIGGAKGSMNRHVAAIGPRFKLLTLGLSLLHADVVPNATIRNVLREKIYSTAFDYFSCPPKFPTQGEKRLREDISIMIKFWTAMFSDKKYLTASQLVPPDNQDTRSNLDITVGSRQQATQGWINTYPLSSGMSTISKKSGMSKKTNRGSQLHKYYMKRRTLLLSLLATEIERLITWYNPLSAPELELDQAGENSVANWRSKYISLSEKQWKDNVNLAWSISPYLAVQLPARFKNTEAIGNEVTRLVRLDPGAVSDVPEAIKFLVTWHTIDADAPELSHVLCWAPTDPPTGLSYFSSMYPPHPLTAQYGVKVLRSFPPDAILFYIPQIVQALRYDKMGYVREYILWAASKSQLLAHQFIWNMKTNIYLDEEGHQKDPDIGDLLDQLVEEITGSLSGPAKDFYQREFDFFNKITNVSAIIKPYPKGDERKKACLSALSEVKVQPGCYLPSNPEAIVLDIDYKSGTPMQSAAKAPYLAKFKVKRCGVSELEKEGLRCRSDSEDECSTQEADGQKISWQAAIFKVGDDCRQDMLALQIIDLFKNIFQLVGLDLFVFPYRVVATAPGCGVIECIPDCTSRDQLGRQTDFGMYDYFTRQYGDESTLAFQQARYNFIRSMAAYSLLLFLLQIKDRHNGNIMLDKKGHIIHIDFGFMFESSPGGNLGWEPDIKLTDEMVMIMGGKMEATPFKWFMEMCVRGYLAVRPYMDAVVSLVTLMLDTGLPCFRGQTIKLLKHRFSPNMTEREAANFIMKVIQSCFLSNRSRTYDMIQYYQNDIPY
Text: as §1

kinases (kinome) [4] = molecular target: T4, kinases (kinome) (Homo sapiens, UniProt Q8TD19); details: NEK9 (Other), IPI00301609
T4 construct: determined in kinobeads assays with mass spectrometry detection of kinases as described previously; endogenous in cells; host or cells: cell lysate
T4 sequence (Q8TD19 1-979): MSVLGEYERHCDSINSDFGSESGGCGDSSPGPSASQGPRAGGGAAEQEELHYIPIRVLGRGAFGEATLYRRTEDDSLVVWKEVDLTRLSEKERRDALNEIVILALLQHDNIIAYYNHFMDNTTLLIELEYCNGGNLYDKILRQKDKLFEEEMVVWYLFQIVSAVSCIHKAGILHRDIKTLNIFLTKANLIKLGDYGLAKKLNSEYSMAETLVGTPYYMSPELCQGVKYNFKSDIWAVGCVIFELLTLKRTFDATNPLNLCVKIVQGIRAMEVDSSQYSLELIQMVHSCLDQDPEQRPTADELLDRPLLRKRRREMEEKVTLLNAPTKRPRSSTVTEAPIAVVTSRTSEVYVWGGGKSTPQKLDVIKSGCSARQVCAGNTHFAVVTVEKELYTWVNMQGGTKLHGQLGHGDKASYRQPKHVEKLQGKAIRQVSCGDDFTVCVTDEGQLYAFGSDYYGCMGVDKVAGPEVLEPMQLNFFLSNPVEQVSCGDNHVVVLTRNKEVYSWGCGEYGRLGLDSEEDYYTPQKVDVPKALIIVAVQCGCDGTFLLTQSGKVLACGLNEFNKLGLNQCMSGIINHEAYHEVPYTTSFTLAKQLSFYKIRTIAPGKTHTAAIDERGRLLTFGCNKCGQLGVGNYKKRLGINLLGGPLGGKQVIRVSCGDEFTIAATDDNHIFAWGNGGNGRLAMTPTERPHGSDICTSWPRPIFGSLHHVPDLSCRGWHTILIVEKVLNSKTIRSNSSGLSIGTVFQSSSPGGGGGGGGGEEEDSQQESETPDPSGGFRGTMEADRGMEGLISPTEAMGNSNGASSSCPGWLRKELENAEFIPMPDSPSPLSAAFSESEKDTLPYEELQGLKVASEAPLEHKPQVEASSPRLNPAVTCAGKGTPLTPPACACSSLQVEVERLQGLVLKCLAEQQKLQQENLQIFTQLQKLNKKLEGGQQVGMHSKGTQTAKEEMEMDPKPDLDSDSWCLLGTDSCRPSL
Text: as §1

kinases (kinome) [5] = molecular target: T5, kinases (kinome) (Homo sapiens, UniProt P19784); details: CK2a2 (Other), IPI00020602
T5 construct: determined in kinobeads assays with mass spectrometry detection of kinases as described previously; endogenous in cells; host or cells: cell lysate
Text: as §1

kinases (kinome) [6] = molecular target: T6, kinases (kinome) (Homo sapiens, UniProt P42684); details: ARG (TK), IPI00329488
T6 construct: determined in kinobeads assays with mass spectrometry detection of kinases as described previously; endogenous in cells; host or cells: cell lysate
T6 sequence (P42684 whole entry): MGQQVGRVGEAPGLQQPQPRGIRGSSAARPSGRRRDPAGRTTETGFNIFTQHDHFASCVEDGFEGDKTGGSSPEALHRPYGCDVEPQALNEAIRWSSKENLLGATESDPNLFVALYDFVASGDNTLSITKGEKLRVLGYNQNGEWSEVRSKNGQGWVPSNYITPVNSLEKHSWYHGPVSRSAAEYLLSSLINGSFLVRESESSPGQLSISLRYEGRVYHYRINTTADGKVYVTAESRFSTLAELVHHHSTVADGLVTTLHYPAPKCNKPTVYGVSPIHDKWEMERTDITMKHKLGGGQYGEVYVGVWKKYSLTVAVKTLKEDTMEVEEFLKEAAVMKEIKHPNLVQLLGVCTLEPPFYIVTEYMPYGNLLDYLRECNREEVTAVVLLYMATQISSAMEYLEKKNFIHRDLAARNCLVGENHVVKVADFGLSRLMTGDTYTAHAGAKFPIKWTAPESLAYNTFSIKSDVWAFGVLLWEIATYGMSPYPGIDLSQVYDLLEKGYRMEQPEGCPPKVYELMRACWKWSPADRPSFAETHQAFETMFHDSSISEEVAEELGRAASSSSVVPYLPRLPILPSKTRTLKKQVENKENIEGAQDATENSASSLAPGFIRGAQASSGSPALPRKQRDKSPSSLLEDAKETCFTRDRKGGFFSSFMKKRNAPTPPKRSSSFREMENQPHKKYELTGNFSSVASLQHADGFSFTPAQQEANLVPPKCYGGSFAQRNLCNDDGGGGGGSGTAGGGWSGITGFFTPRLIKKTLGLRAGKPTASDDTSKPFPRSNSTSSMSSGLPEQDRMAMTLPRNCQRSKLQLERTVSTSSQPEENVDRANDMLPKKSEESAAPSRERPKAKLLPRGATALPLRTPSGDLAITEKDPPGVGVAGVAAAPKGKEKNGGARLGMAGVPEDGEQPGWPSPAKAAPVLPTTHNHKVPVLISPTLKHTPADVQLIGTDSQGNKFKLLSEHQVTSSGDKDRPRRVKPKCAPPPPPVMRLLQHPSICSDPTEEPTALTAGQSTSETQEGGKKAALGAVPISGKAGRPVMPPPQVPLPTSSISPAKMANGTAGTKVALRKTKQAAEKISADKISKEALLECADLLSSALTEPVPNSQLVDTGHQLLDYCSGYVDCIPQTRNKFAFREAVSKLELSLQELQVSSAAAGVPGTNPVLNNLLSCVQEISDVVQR
Text: as §1

kinases (kinome) [7] = molecular target: T7, kinases (kinome) (Homo sapiens, UniProt P53667); details: LIMK1 (TKL), IPI00291702
T7 construct: determined in kinobeads assays with mass spectrometry detection of kinases as described previously; endogenous in cells; host or cells: cell lysate
T7 sequence (P53667 whole entry): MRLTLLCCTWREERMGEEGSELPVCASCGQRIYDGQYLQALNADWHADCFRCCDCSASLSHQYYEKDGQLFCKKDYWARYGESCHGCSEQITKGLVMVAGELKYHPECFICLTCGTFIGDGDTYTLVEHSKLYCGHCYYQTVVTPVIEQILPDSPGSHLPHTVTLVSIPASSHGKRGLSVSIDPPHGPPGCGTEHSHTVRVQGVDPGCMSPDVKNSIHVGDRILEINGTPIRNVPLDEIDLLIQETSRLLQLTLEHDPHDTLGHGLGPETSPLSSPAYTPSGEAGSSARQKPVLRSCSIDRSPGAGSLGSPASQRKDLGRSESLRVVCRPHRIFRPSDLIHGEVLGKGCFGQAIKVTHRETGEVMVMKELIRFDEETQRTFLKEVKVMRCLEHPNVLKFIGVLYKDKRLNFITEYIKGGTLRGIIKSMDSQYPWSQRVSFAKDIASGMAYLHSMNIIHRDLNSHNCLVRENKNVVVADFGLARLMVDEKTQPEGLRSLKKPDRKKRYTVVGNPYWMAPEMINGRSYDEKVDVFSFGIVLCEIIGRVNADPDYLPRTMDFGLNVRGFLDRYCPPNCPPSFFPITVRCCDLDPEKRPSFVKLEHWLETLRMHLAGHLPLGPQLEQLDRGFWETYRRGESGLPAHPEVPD
Text: as §1

kinases (kinome) [8] = molecular target: T8, kinases (kinome) (Homo sapiens, UniProt O15530); details: PDK1 (AGC), IPI00002538
T8 construct: determined in kinobeads assays with mass spectrometry detection of kinases as described previously; endogenous in cells; host or cells: cell lysate
T8 sequence (O15530 1-556): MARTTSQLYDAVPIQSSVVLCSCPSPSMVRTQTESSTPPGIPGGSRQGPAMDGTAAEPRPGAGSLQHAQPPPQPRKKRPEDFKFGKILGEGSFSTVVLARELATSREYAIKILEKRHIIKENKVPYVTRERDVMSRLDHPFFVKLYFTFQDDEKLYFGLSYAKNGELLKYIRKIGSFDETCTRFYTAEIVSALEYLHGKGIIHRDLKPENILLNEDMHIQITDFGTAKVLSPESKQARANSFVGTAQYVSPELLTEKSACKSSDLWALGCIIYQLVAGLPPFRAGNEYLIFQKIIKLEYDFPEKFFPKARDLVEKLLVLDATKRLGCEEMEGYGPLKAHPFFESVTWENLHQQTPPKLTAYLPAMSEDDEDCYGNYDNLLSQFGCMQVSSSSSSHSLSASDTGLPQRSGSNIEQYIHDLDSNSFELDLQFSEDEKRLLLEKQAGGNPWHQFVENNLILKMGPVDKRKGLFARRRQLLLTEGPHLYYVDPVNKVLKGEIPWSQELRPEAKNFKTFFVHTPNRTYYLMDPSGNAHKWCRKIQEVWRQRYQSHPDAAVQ
Text: as §1

kinases (kinome) [9] = molecular target: T9, kinases (kinome) (Homo sapiens, UniProt Q7KZI7); details: MARK2 (CAMK), IPI00555838
T9 construct: determined in kinobeads assays with mass spectrometry detection of kinases as described previously; endogenous in cells; host or cells: cell lysate
T9 sequence (Q7KZI7 whole entry): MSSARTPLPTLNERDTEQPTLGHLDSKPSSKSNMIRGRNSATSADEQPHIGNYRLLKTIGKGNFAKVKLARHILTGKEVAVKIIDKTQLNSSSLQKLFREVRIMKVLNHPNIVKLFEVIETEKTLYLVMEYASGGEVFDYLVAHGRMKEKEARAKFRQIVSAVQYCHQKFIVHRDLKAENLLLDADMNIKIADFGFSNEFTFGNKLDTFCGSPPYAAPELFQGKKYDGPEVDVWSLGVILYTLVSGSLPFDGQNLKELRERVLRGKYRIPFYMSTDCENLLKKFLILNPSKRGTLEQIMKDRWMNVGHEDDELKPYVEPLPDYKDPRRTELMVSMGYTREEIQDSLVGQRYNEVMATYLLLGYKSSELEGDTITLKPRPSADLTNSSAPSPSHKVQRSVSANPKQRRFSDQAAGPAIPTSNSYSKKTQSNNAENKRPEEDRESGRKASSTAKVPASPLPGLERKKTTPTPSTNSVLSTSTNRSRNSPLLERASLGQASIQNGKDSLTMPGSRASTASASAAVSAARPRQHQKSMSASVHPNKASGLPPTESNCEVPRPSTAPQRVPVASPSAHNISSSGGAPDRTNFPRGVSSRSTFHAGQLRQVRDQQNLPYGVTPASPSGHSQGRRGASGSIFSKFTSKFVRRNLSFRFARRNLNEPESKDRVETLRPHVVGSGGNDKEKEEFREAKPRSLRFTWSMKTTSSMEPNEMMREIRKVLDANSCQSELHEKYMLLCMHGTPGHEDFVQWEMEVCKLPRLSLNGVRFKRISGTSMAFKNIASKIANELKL
Text: as §1

kinases (kinome) [10] = molecular target: T10, kinases (kinome) (Homo sapiens, UniProt P25440); details: BRD2 (Atypical), IPI00440502
T10 construct: determined in kinobeads assays with mass spectrometry detection of kinases as described previously; endogenous in cells; host or cells: cell lysate
Text: as §1

Structure (SMILES)	IC50 (kinases (kinome) [1]) [µM]	IC50 (kinases (kinome) [2]) [µM]	IC50 (kinases (kinome) [3]) [µM]	IC50 (kinases (kinome) [5]) [µM]	IC50 (kinases (kinome) [6]) [µM]	IC50 (kinases (kinome) [7]) [µM]	IC50 (kinases (kinome) [8]) [µM]	IC50 (kinases (kinome) [9]) [µM]	IC50 (kinases (kinome) [10]) [µM]	IC50 (kinases (kinome) [4]) [µM]
C[C@H]1COCCN1c1nc(-c2ccc(NC(=O)NC3CC3)cc2)cc(-c2cccnc2S(C)(=O)=O)n1 [Example 46, (S)-1-cyclopropyl-3-(4-(2-(3-methylmorpholino)-6-(2-(methylsulfonyl)pyridin-3-yl)pyrimidin-4-yl)phenyl)urea]	> 10	> 10	> 10	> 10	> 10	> 10	> 10	> 10	> 10	> 10
C[C@H]1COCCN1c1nc(-c2ccc(NC(=O)N[C@H]3CCC[C@@H]3O)cc2)cc(-c2cc(F)ccc2S(C)(=O)=O)n1 [Example 76, 1-(4-(6-(5-fluoro-2-(methylsulfonyl)phenyl)-2-((S)-3-methylmorpholino)pyrimidin-4-yl)phenyl)-3-((1S,2S)-2-hydroxycyclopentyl)urea]	> 10	> 10	> 10	> 10	> 10	> 10	> 10	> 10	> 10	> 10
C[C@H]1COCCN1c1cc(-c2ccccn2)nc(-c2ccc(NC(=O)NCCO)cc2)n1 [Example 43, (S)-1-(2-hydroxyethyl)-3-(4-(4-(3-methylmorpholino)-6-(pyridin-2-yl)pyrimidin-2-yl)phenyl)urea]	> 10	> 10	> 10	> 10	> 10	> 10	> 10	> 10	> 10	> 10
C[C@H]1COCCN1c1nc(-c2ccc(NC(=O)NC3CC3)cc2)cc(-c2cc(F)ccc2S(C)(=O)=O)n1 [Example 40, (S)-1-cyclopropyl-3-(4-(6-(5-fluoro-2-(methylsulfonyl)phenyl)-2-(3-methylmorpholino)pyrimidin-4-yl)phenyl)urea]	> 10	> 10	> 10	> 10	> 10	> 10	> 10	> 10	> 10	> 10

Continued, in another order:

IC50 (kinases (kinome) [1]) [µM]	IC50 (kinases (kinome) [2]) [µM]	IC50 (kinases (kinome) [3]) [µM]	IC50 (kinases (kinome) [5]) [µM]	IC50 (kinases (kinome) [6]) [µM]	IC50 (kinases (kinome) [7]) [µM]	IC50 (kinases (kinome) [8]) [µM]	IC50 (kinases (kinome) [9]) [µM]	IC50 (kinases (kinome) [10]) [µM]	Structure (SMILES)	IC50 (kinases (kinome) [4]) [µM]
> 10	> 10	> 10	> 10	> 10	> 10	> 10	> 10	> 10	C[C@H]1COCCN1c1cc(-c2ccccc2S(C)(=O)=O)nc(-c2ccc(NC(=O)NC3CC3)cc2)n1 [Example 6, (S)-1-cyclopropyl-3-(4-(4-(3-methylmorpholino)-6-(2-(methylsulfonyl)phenyl)pyrimidin-2-yl)phenyl)urea]	> 10
> 10	> 10	> 10	> 10	> 10	> 10	> 10	> 10	> 10	CCNC(=O)Nc1ccc(-c2cc(-c3ccccc3C#N)nc(N3CCOC[C@@H]3C)n2)cc1 [Example 8, (S)-1-(4-(6-(2-cyanophenyl)-2-(3-methylmorpholino)pyrimidin-4-yl)phenyl)-3-ethylurea]	> 10
> 10	> 10	> 10	> 10	> 10	> 10	> 10	> 10	> 10	C[C@H]1COCCN1c1nc(-c2ccc(NC(=O)NC3CC3)cc2)cc(-c2ccccc2S(C)(=O)=O)n1 [Example 4, (S)-1-cyclopropyl-3-(4-(2-(3-methylmorpholino)-6-(2-(methylsulfonyl)phenyl)pyrimidin-4-yl)phenyl)urea]	> 10
